Results taken from US12329801B2, “Regenerative polypeptides and uses thereof” (JUVENA THERAPEUTICS, INC., priority 2021, dated 2025).

Assays:
DM1 human myoblast cells = experiment: Proliferation (EdU) and fusion (% eMyHC area) in DM1 human myoblast; type: cell-based; conditions: 72 h for proliferation, fold change vs vehicle
Method: FIG. 7A Bar graph of % EdU+ human myoblast (person) and FIG. 7B % area MyHC in response to IGF2. Myoblast were cultured 72 h for proliferation and 96 h for fusion in the presence of indicated factor. Mean∓S.D. Mean∓SD. Significant p-values (EdU: Vehicle˜IGF2: 6.8E-3, % eMyHC Area: Vehicle˜IGF2: 1.9E-4) (*p<0.05 by Students Two-Tailed T-test, n=3-6).
IGF2 was tested individually for its ability to promote proliferation and/or fusion of human muscle progenitor cells from an individual with myotonic dystrophy type 1 (hMD)—a muscular dystrophy caused by mutations in the DMPK1 gene. […] After 72 or 96 hours, cells were pulsed for 2-5 hours with EdU (30 uM), ethanol fixed, stained with Hoescht 3342, immunostained for proliferation—as measured by the percent of cells staining positive for EdU (% EdU)-, and immunostained for differentiation—as measured by the increase in cellular area staining positive for embryonic myosin heavy chain (% eMyHC) relative to the negative controls, which received media and vehicle only. Wells were imaged on a Keyence BZ-100 at 4×, the images quantified in Cell Profiler, and the statistics were computed in R. Additionally, RNA was extracted from myoblast and select transcript abundances quantified by qPCR. […]

[1] = Murine pharmacokinetics, intravenous, ELISA, non-compartment analysis; type: in vivo, mice; conditions: mice 10-12 weeks old, dose 10 mg/kg (HSA-IGF2R61A), 600 ug/kg (IGF2)
Method: Murine pharmacokinetics (PK) represents the absorption, distribution, metabolism, and elimination of drugs from the body. The pharmacokinetic profile of the therapeutic polypeptides were determined in mice (10-12 weeks old). Mice were fed ad libitum and housed under controlled conditions of lighting (12-hour light/12-hour dark) and temperature (22-24° C.). Mice were allowed to acclimate for 3 days prior to the initiation of the experiment. Intravenous (IV) injection in 10-12 weeks old mice. Engineered mitogenic polypeptides concentrations in the samples were measured by ELISA. Various pharmacokinetics will be calculated as well as the absorption/elimination dynamics following different routes of administration.

DM1 human myoblast = experiment: Myogenic gene expression fold change in DM1 human myoblast; type: cell-based; conditions: 48 h; BMP7 50 ng/mL, Butyrate 100 nM, IGF2 200 ng/mL
Method: Myoblasts were cultured 48 h in the presence of factors (BMP7 50 ng/mL, Butyrate 100 nM, IGF2 200 ng/mL).
Myoblasts were cultured 96 h in the presence of factors (IGF2 200 ng/ml). […] Myoblasts were cultured 48 h in the presence of factors (IGF2 200 ng/mL).
IGF2 was tested individually for its ability to promote proliferation and/or fusion of human muscle progenitor cells from an individual with myotonic dystrophy type 1 (hMD)—a muscular dystrophy caused by mutations in the DMPK1 gene. The effect of IGF2 on myogenic activity was assayed in biological triplicate across a range of concentrations centered around expected physiological levels by adding each factor to hMD myoblasts for 72 hours with daily media changes (DMEM +2% horse serum) and a second pulse of factors at the first media change. After 72 or 96 hours, cells were pulsed for 2-5 hours with EdU (30 uM), ethanol fixed, stained with Hoescht 3342, immunostained for proliferation—as measured by the percent of cells staining positive for EdU (% EdU)-, and immunostained for differentiation—as measured by the increase in cellular area staining positive for embryonic myosin heavy chain (% eMyHC) relative to the negative controls, which received media and vehicle only. Wells were imaged on a Keyence BZ-100 at 4×, the images quantified in Cell Profiler, and the statistics were computed in R. Additionally, RNA was extracted from myoblast and select transcript abundances quantified by qPCR.

[2] = Backbone cleavage on expression from CHO cells (reducing SDS-PAGE, Western blot); design: species or system Chinese Hamster; conditions: expressed from CHO cells
Method: The amino acid backbone of IGF2 is cleaved when expressed from Chinese Hamster Ovary (CHO) cells (FIG. 13A) as visualized on a reducing SDS-PAGE and Western blot (FIG. 13B). The CHO cells were grown in a 37° C. incubator with a humidified atmosphere of 8% CO2 on an orbital shaker platform with a shaking speed 125 rpm to reach 4E6 cells/mL, followed by transferring the calculated volume of cells to fresh, pre-warmed ExpiCHO™ Expression Medium in a shake flask. Incubated flasks in a 37° C. incubator with a humidified atmosphere of 8% CO2 shook on an orbital shaker platform until cultures reached a density of 4×106−6×10^6 viable cells/mL.
After mixing each plasmid with 100 ul SFM in a microtube; ExpiFectamine (8 ul ×10.5=84 ul) with OptiPro medium (92 ul×10.5=966 ul) in a microtube; adding 100 ul into the plasmid tube and mix by pipetting; After 5 min, add 200 ul into each well and swirl to mix. mix enhancer (15×10.2=153 ul) with feed ([…]), add 615 ul into each well. Culture supernatant collected at intervals was spun down at low speed and high speed, then frozen at −80 deg. Aliquots were analyzed for protein concentration by nanodrop, and then an equivalent amount loaded onto 4-12% SDS-PAGE gels for molecular weight distribution analysis. […]

## IGF2: Human IGF2 amino acid sequence, SEQ ID NO: 29
DM1 human myoblast cells
  EdU FC: 2.18
[1]
  Half-life: 2.85 h
DM1 human myoblast
  MYF5 expression fold change compared to FM (vehicle): 0.730
  MYOD1 expression fold change compared to FM (vehicle): 1.252
  MYOG expression fold change compared to FM (vehicle): 2.972
[2]
  cleavage of the IGF2 amino acid backbone: is cleaved
